Experimental data from US5952000A, “Fatty acid esters of lactic acid salts as permeation enhancers” (TheraTech, Inc., priority 1997, dated 1999).

What was measured:
[1] = In vitro skin flux, testosterone from hydroalcoholic gel (Example 2)
Experimental: (§1) In vitro skin flux studies were conducted using human cadaver epidermal membrane in modified Franz non-jacketed diffusion cells. […] This method involves the exposure of the full-thickness skin to water at 60° C. for a time period of 60 seconds. After this period, the epidermal membrane was gently peeled off the dermis and stored for later use in aluminum foil at -5° C.
Permeation experiments with hydroalcoholic gels were performed using finite occluded doses. The occluded dose is an appropriate in vitro model for the application of a transdermal patch drug delivery system containing a liquid or gel reservoir.
Occluded dosing experiments were set-up according to the following procedure. […]
(§2) The following sampling procedure was used for all dosage forms. At predetermined sampling time points, the entire contents of the receiver compartment were collected for drug quantitation and the receiver compartment was filled with fresh solution, taking care to eliminate any air bubbles at the skin/solution interface. The cumulative amount of drug permeated per unit area at any time t(Qt, μg/cm^2) was determined as follows: [formula] where CN is the concentration (μg/ml) of the drug in the receiver sample for the corresponding sample time, V is the volume of fluid in the receiver chamber (~6.3 cm^3), and A is the diffusional area of the cell (0.64 cm^2). […]

[2] = In vitro skin flux, diclofenac from adhesive matrix systems (Example 8); format: in vitro ADME, human
Experimental: The effect of fatty acid lactylate salts on the permeation of a model acidic drug from some copolymer adhesive matrix systems was evaluated using diclofenac, a non-steroidal anti-inflammatory. The following matrix systems were prepared to test the effect of fatty acid lactylate salts on the permeation of this acidic compound from copolymer adhesives: (a) Diclofenac acid at 1.8% (w/w) in Durotak 87-2516 (National Starch and Chemical, New Jersey), a solvent based acrylic adhesive, at 92.8% (w/w) (Formula 8-A); (b) sodium diclofenac at 2.0% (w/w) in Nacor 72-9965 (National Starch and Chemical Company, New Jersey), an aqueous emulsion based acrylic adhesive, at 98% (w/w) (Formula 8-C); sodium diclofenac at 2.0% (w/w) and Robond PS-20 (Rohm and Haas, Philadelphia, Pa.) an aqueous emulsion based acrylic adhesive, at 93.6% (w/w) with polyvinylpyrrolidone (PVP, Kollidon 90, BASF, New Jersey) at 2.0% (w/w) as a thickening agent (Formula 8-E).

[3] = In vitro skin flux, testosterone from saturated aqueous solution (Example 1)
Experimental: as §1
Permeation experiments with aqueous solutions were performed using pre-saturated drug solutions containing excess drug solid (infinite dose). Prior to skin permeation experiments, the epidermal membrane was allowed to hydrate over night as described above. […]
as §2

[4] = In vitro skin flux, estradiol from organic solvent based adhesive matrix (Example 3); format: in vitro ADME, human; settings: organic solvent based acrylic PSA; vs free acid form
Experimental: Pressure sensitive adhesive matrix systems prepared according to the following steps. First, the solids content of the adhesive solution (water or organic solvent based) was determined by placing a known weight of solution in a weighed aluminum dish and evaporating the solvents overnight in a 70° C. convection oven. The solid adhesive content of the solution was calculated by dividing the adhesive solid weight after drying by the initial total solution weight. Next, a weighed quantity of adhesive solution was added to a glass bottle and the drug substance, permeation enhancer, and other excipients were weighed and added to the adhesive solution in a quantity necessary to achieve the desired dry matrix film composition. […]
The following sampling procedure was used for all dosage forms. At predetermined sampling time points, the entire contents of the receiver compartment were collected for drug quantitation and the receiver compartment was filled with fresh solution, taking care to eliminate any air bubbles at the skin/solution interface. The cumulative amount of drug permeated per unit area at any time t(Qt, μg/cm^2) was determined as follows: [formula] where CN is the concentration (μg/ml) of the drug in the receiver sample for the corresponding sample time, V is the volume of fluid in the receiver chamber (~6.3 cm^3), and A is the diffusional area of the cell (0.64 cm^2).

[5] = In vitro skin flux, clonidine from adhesive matrix systems (Example 7); format: in vitro ADME, human
Experimental: Permeation enhancement by a fatty acid lactylate salt was also evaluated with the basic antihypertensive drug clonidine in both free base and HCl acid addition salt forms. […] (Formulas 7-B, 7-D, 7-F and 7-H respectively).

[6] = In vitro skin flux, buspirone free base from organic solvent based acrylic adhesive (Example 5); format: in vitro ADME, human; settings: organic solvent based acrylic PSA
Experimental: Permeation enhancement of the potassium salt form of lauroyl lactylic acid using buspirone free base as a model drug was evaluated in an organic solvent based acrylic pressure sensitive adhesive.

[7] = In vitro skin flux, buspirone HCl from aqueous emulsion based acrylic PSA (Example 4); format: in vitro ADME, human
Experimental: Permeation enhancement of the potassium salt form of lauroyl lactylic acid (R.I.T.A. Corp., Woodstock, Ill.) in an aqueous emulsion based acrylic pressure sensitive adhesive (PSA) was evaluated using buspirone HCl as a model drug.

Molecule	permeation enhancement (in words) [1]	enhancement by free acid form compared with Formulas 8-D and 8-F (in words) ([2]; aqueous emulsion based adhesives, "will show")	enhancement by free acid form compared with Formula 8-B (in words) ([2]; solvent based adhesive, "will show")	permeation enhancement (in words) [3]	increase in permeation, acid form of diclofenac ([2]; […] sodium lauroyl lactylate, Table 8-1)	effectiveness as enhancer (in words) ([2]; all of the matrix systems tested)	effectiveness as permeation enhancer (in words) [4]	increase of clonidine permeation over unenhanced counterpart ([5]; aqueous emulsion based matrix systems, Tables 7-1, 7-2, 7-3)	effectiveness as enhancer (in words) ([5]; clonidine HCl, aqueous emulsion based matrix systems)	effectiveness as enhancer (in words) ([5]; clonidine base, organic solvent based adhesive matrix, Table 7-4)	effectiveness as permeation enhancer (in words) [6]	effectiveness as permeation enhancer (in words) [7]
CCCCCCCCCCCC(=O)OC(C)C(=O)O (centres unmarked) [lauroyl lactylic acid, reference compound]	significant permeation enhancement	significant reduction in enhancement	somewhat comparable results	significant permeation enhancement	–	–	–	–	–	–	–	–
CCCCCCCCCCCC(=O)OC(C)C(=O)OC(C)C(=O)[O-].[Na+] (centres unmarked) [sodium lauroyl lactylate]	significant permeation enhancement	–	–	significant permeation enhancement	about 50%	consistently effective enhancer	less effective as a permeation enhancer than the free acid form	about two fold	consistently effective enhancer	not an effective enhancer	–	–
potassium lauroyl lactylate	–	–	–	–	–	–	–	–	–	–	not an effective permeation enhancers	unexpectedly effective permeation enhancer
